Patent US12662473B2, “Inhibitors for programmed cell necrosis and preparation method therefor and use thereof” (SHANGHAI INSTITUTE OF ORGANIC CHEMISTRY, CHINESE ACADEMY OF …, priority 2019, dated 2026)
Like-named read-outs stand apart in the source and are kept apart here.

Experiments:
[1] = system: FADD−/− Jurkat cells; assay: TNF-induced programmed cell necrosis inhibition, Cell Titer-Glo viability; format: cell-based
From the text: (§1) The adopted biological assay protocol was: the programmed necroptosis effect of compounds on TNF-induced in FADD (Fas-Associated Death Domain) deficient Jurkat cells and L929 cells.
(§2) In order to verify the inhibitory effect of the compounds of the present invention on programmed cell necrosis at the cellular level, cell types closely related to the RIP1 pathway, namely FADD deficient Jurkat cells (human peripheral blood leukemia T cell line) and L929 cells, were selected. Two different stimulation methods were used: tumor necrosis factor (TNFα) used alone, or TNFα used in combination with mitochondria-derived cysteine aspartate activator (SMAC). Cells viability was calculated by detecting chemiluminescence values, and the biological activity of the compound for inhibiting programmed cell necrosis can be obtained.
(§3) Methods: FADD deficient Jurkat cells: FADD deficient Jurkat cells (human peripheral blood leukemia T cell line) were cultured in vitro. After growing to the logarithmic growth phase, the cells were collected, centrifuged at 1000 rpm for 5 min, the supernatant was discarded, and the cell concentration was adjusted to 2.5×10^5/mL. Cells were seeded into 384-well plates, 40 μl per well. 5 μL of Smac (50 nM) diluted in cell culture medium and 5 μL of each compound were added to the corresponding wells. After pretreatment at 37° C. for 1 h, 5 μL of TNFα (50 ng/mL) diluted in cell culture medium was added to each well of the stimulation group, and 5 μL of the culture medium was added to the control group. The plate was cultured in a cell incubator (37° C., 5% CO2) for 14 h, and 15 μl of Cell Titer-Glo solution was added to each well, then incubated for 30 min at room temperature, and intracellular ATP level was measured by detecting luminescence. The unstimulated DMSO control wells were taken as 100% cell viability. L929 cells: The L929 cells (mouse fibroblasts) were cultured in vitro, digested and diluted to 6.25×10^4/ml, and the cells were seeded into 384-well plates, 40 μl per well. The plate was placed in a cell incubator (37° C., 5% CO2) for 12 hours. 5 μL of Smac (500 nM) diluted in cell culture medium and 5 μL of each compound were added to the corresponding wells. After pretreatment at 37° C. for 1 h, 5 μL of TNFα (500 ng/mL) diluted in cell culture medium was added to each well of the stimulation group, and 5 μL of the culture medium was added to the control group. After the plate was cultured for 14 h in a cell incubator (37° C., 5% CO2), 15 μl of Cell Titer-Glo solution was added to each well. The plate was incubated at room temperature for 30 min, and intracellular ATP level was measured by detecting luminescence. The unstimulated DMSO control wells were taken as 100% cell viability. EC50 values of the compounds were calculated using Prism Graphpad statistical software.
FADD deficient Jurkat cells: FADD deficient Jurkat cells (human peripheral blood leukemia T cell line) were cultured in vitro. After growing to the logarithmic growth phase, the cells were collected, centrifuged at 1000 rpm for 5 min, the supernatant was discarded, and the cell concentration was adjusted to 2.5×10^5/mL. Cells were seeded into 384-well plates, 40 μl per well. 5 μL of Smac (50 nM) diluted in cell culture medium and 5 μL of each compound were added to the corresponding wells. After pretreatment at 37° C. for 1 h, 5 μL of TNFα (50 ng/mL) diluted in cell culture medium was added to each well of the stimulation group, and 5 μL of the culture medium was added to the control group. After the plate was cultured in a cell incubator (37° C., 5% CO2) for 14 h, 15 μl of Cell Titer-Glo solution was added to each well. The mixture was incubated for 30 min at room temperature, and intracellular ATP level was measured by detecting luminescence. The unstimulated DMSO control wells were taken as 100% cell viability.

[2] = system: L929 cells; assay: as above; format: cell-based, mouse; settings: read-out: EC50 inhibitory activity on programmed cell necrosis
From the text: as §1, §2, §3
L929 cells: The L929 cells (mouse fibroblasts) were cultured in vitro, digested and diluted to 6.25×10^4/ml, and the cells were seeded into 384-well plates, 40 μl per well. The plate was placed in a cell incubator (37° C., 5% CO2) for 12 hours. 5 μL of Smac (500 nM) diluted in cell culture medium and 5 μL of each compound were added to the corresponding wells. After pretreatment at 37° C. for 1 h, 5 μL of TNFα (500 ng/mL) diluted in cell culture medium was added to each well of the stimulation group, and 5 μL of the culture medium was added to the control group. After the plate was cultured for 14 h in a cell incubator (37° C., 5% CO2), and 15 μl of Cell Titer-Glo solution was added to each well, then incubated at room temperature for 30 min, and intracellular ATP level was measured by detecting luminescence. The unstimulated DMSO control wells were taken as 100% cell viability.

[3] = Homo sapiens, Jurkat, 14 h, TNFa + SM164, read-out: EC50 inhibitory activity on programmed cell necrosis
[4] = Homo sapiens, Jurkat, TNFa, read-out: EC50 inhibitory activity on programmed cell necrosis
[5] = Mus musculus, L929, 14 h, L929 cells (mouse), TNFa + SM164
[6] = Mus musculus, L929, L929 cells (mouse), TNFa

| Structure (SMILES) | EC50 [1, 3] [nM] | EC50 [1, 4] [nM] | EC50 [2, 5] [nM] | EC50 [2, 6] [nM] | EC50 ([1]; FADD−/− Jurkat cells (human), TNFa + SM164, read-out: EC50 inhibitory activity on programmed cell necrosis) [nM] | EC50 ([1]; FADD−/− Jurkat cells (human), TNFa, read-out: EC50 inhibitory activity on programmed cell necrosis) [nM] | EC50 ([2]; L929 cells (mouse), TNFa + SM164) [nM] | EC50 ([2]; L929 cells (mouse), TNFa) [nM] |
| --- | --- | --- | --- | --- | --- | --- | --- | --- |
| Cc1ccc([C@@H]2CCCN2C(=O)C(C)(C)Oc2ccc(Cl)cc2)cc1 (stereo in doubt) [QY-5-21] | 696 | 93 | 208 | 59.9 |  |  |  |  |
| CN1C(=O)NC(Cc2c[nH]c3c(Cl)cccc23)C1=O (centres unmarked) [Compound 7-Cl-O-Nec-1, reference compound] |  |  |  |  | 337 | 76 | 924 | 155 |
| Cc1noc([C@@H]2CCCN2C(=O)C(C)(C)Oc2ccccc2)n1 [QY-2-25] | > 10000 | 6180 | > 10000 | 2670 |  |  |  |  |
| Cc1noc([C@@H]2CCCN2C(=O)C(C)(C)Oc2ccc(F)cc2)n1 [QY-2-26] | > 10000 | 417 | 982 | 182 |  |  |  |  |
| Cc1noc([C@@H]2CCCN2C(=O)C(C)(C)Oc2ccc(N(C)C)cc2)n1 [QY-2-27] | > 10000 | 9380 | > 10000 | > 10000 |  |  |  |  |
| CC(C)(Oc1ccc(Cl)cc1)C(=O)N1CCC[C@H]1c1nnc(N)s1 [QY-2-34] | > 10000 | > 10000 | > 10000 | > 10000 |  |  |  |  |
| Cc1nc([C@@H]2CCCN2C(=O)C(C)(C)Oc2ccc(Cl)cc2)sc1C [QY-2-38] | > 10000 | 1700 | > 10000 | 1550 |  |  |  |  |
| CC(C)(Oc1ccc(Cl)cc1)C(=O)N1CCC[C@H]1c1nccs1 [QY-2-39] | > 10000 | 1060 | 8920 | 1900 |  |  |  |  |
| Cc1csc([C@@H]2CCCN2C(=O)C(C)(C)Oc2ccc(Cl)cc2)n1 [QY-2-52] | 2240 | 464 | 2370 | 419 |  |  |  |  |
| Cc1cc([C@@H]2CCCN2C(=O)C(C)(C)Oc2ccc(Cl)cc2)on1 [QY-2-53] | 1340 | 199 | 1170 | 172 |  |  |  |  |
| COc1ccc(OC(C)(C)C(=O)N2CCC[C@H]2c2nc(C)no2)cc1 [QY-2-54] | > 10000 | > 10000 | > 10000 | 6190 |  |  |  |  |
| Cc1noc([C@@H]2CCCN2C(=O)C(C)(C)Oc2ccc(C#N)cc2)n1 [QY-2-55] | 2220 | 140 | 233 | 25 |  |  |  |  |
| Cc1noc([C@@H]2CCCN2C(=O)C(C)(C)Oc2ccc(-c3ccccc3)cc2)n1 [QY-2-56] | > 10000 | > 10000 | > 10000 | 2120 |  |  |  |  |
| Cc1noc([C@@H]2CCCN2C(=O)C(C)(C)Oc2ccc(I)cc2)n1 [QY-2-75] | 5150 | 608 | > 10000 | 2450 |  |  |  |  |
| Cc1noc([C@@H]2CCCN2C(=O)C(C)(C)Oc2ccc(OC(F)(F)F)cc2)n1 [QY-2-76] | 3960 | > 10000 | > 10000 | > 10000 |  |  |  |  |
| Cc1ccc(OC(C)(C)C(=O)N2CCC[C@H]2c2nc(C)no2)cc1 [QY-2-77] | > 10000 | 7900 | > 10000 | 4260 |  |  |  |  |
| Cc1noc([C@@H]2CCCN2C(=O)C(C)(C)Oc2ccc(Oc3ccccc3)cc2)n1 [QY-2-78] | > 10000 | 127 | > 10000 | > 10000 |  |  |  |  |
| Cc1noc([C@@H]2CCCN2C(=O)C(C)(C)Oc2cccc(Cl)c2)n1 [QY-2-79] | 8920 | 2030 | 1620 | 212 |  |  |  |  |
| CC(C)(Oc1ccc(Cl)cc1)C(=O)N1CCC[C@H]1c1nc(C2CC2)no1 [QY-2-100] | > 10000 | 2240 | > 10000 | 2480 |  |  |  |  |
| CCCCc1noc([C@@H]2CCCN2C(=O)C(C)(C)Oc2ccc(Cl)cc2)n1 [QY-2-103] | > 10000 | > 10000 | > 10000 | > 10000 |  |  |  |  |
| CC(C)(Oc1ccc(Cl)cc1)C(=O)N1CCC[C@H]1c1nc(Cc2ccccc2)no1 [QY-2-104] | > 10000 | > 10000 | > 10000 | > 10000 |  |  |  |  |
| Cc1noc([C@@H]2CCCN2C(=O)COc2ccc(Cl)cc2)n1 [QY-3-4] | > 10000 | > 10000 | 59100 | > 10000 |  |  |  |  |
| Cc1conc1[C@@H]1CCCN1C(=O)C(C)(C)Oc1ccc(Cl)cc1 [QY-3-11] | 3270 | 389 | 1570 | 404 |  |  |  |  |
| CC(C)c1noc([C@@H]2CCCN2C(=O)C(C)(C)Oc2ccc(Cl)cc2)n1 [QY-3-17] | > 10000 | 3910 | 52400 | 5380 |  |  |  |  |
| Cc1noc([C@@H]2CCCN2C(=O)C(C)(C)Oc2ccc(Cl)c(F)c2)n1 [QY-3-26] | 1280 | 111 | 1240 | 196 |  |  |  |  |
| Cc1noc([C@@H]2CCCN2C(=O)C(C)(C)Oc2ccc(Cl)cc2F)n1 [QY-3-27, (S)-2-(4-Chloro-2-fluorophenoxy)-2-methyl-1-(2-(3-methyl-1,2,4-oxadiazol-5-yl)pyrrolidin-1-yl)propan-1-one] | 849 | 56 | 792 | 133 |  |  |  |  |
